The subject of one test is hypertension. Briefly: Patient case examples: hypertension. Type of test: in vivo, human. Particulars: for Blood pressure: baseline 180/95 on hydralazine hydrochloride. The protocol:
A person with hypertension and not responding to hydralazine hydrochloride (i.e., blood pressure 180/95). […] Patient is begun on DMOG at a dose of 30 mg/kg twice per day. Patient improves (i.e., blood pressure 160/90).
They are started on DMOG at a dose of 30 mg/kg twice per day. Patient improves. No limiting hypertension is noted.
A person with hypertension is not responding to hydralazine hydrochloride (i.e., blood pressure 180/95). […] Patient is begun on DMOG at a dose of 30 mg/kg twice per day. Patient improves (i.e., blood pressure 160/90).

The test system of the next test is muscle wasting. Briefly: Patient case examples: lymphoma and muscle wasting, six minute walk test. Type of test: in vivo, human. The protocol:
A person with lymphoma and muscle wasting. Patient is started on carvedilol at 12.5 BID and isosorbide dinitrate at 10 mg POTID. Patient is started on an intravenous formulation of DMOG at a concentration of […]. Patient's strength improves as evidenced by a six minute walk test.
A person with lymphoma and muscle wasting. Patient is started on alprenolol and isosorbide dinitrate. Patient is started on an intravenous formulation of DMOG at a concentration of 20.0 mg/mL. Patient's strength improves as evidenced by a six minute walk test.

Test [1] deals with Chronic Obstructive Pulmonary Disease. As to the kind of experiment: Patient case examples: Chronic Obstructive Pulmonary Disease. The format is in vivo, human. As to the method: Patient started on DMOG at a dose of 50 mg/kg three times per day. Patient improves as evidenced by improved spirometry. A patient having Chronic Obstructive Pulmonary Disease, receiving supplemental oxygen and treated with salbutamol and prednisone is started on DMOG at a dose of 20 mg/kg three times per day.

Another test has as its system heart failure. As to the kind of experiment: Patient case examples: heart failure (ejection fraction, dyspnea). The format is in vivo, human. Particulars: for Ejection fraction / Ejection fraction response: baseline 25%; for Ejection fraction: within one month. As to the method: The patient is started on nitroglycerin patch (Nitro-bid), 2 inches, twice a day and DMOG at a dose of 100 mg/kg once per day. Ejection fraction improves to 40% within one month.
The patient is started on nitroglycerin patch (Nitro-bid), 2 inches, twice a day and DMOG at a dose of 25 mg/kg three times per day. Ejection fraction improves to 42% within one month.
The patient is started on intravenous nitroglycerin at 20 μg per minute and DMOG at a dose of 50 mg/kg three times per day. Ejection fraction improves to 42% within one month.
A person with heart failure remains short of breath despite increasing doses of nitroglycerin.

In a further test the test system is unstable angina. Briefly: Patient case examples: unstable angina with nitroglycerin tolerance. The format is in vivo, human. To be noted: IV nitroglycerin tolerance over 48 hours. The protocol:
A person with unstable angina on IV nitroglycerin develops tolerance over 48 hours as evidenced by recurrent chest pains despite increasing doses of drug.
A person with unstable angina on IV nitroglycerin develops tolerance over 48 hours as evidenced by recurrent chest pains despite increasing doses of drug. […] The patient improves.

A further test concerns pulmonary edema. As to the kind of experiment: Patient case examples: pulmonary edema. The format is in vivo, human. To be noted: over the day. The protocol:
A person presents complaining of shortness of breath. […] An intravenous line is inserted and the patient is started on IV infusion of […] per kilogram per minute nitroglycerin. They are also given an intravenous formulation of DMOG at a concentration of 10.0 mg/ml. Their symptoms improve over the day, during which time their arteriolar PO2 increases from 70 to 85 mm Hg.
A person presents complaining of shortness of breath. […] The patient is started on intravenous nitroglycerin at 25 μg per minute and DMOG at a dose of 25 mg/kg three times per day. Their symptoms improve over the day, during which time their arteriolar PO2 increases from 60 to 85 mm Hg.

Another test relates to asthma. As to the kind of experiment: Patient case examples: asthma. The format is in vivo, human. As to the method:
A person with asthma, wherein symptoms are not improving despite receiving treatment with 250 ug beclomethasone taken in combination with an inhaler containing albuterol (when needed) is begun on DMOG at a dose of 20 mg/kg three times per day. Patient's asthma improves.
A person with asthma exacerbated by treatment with budesonide and formoterol at a dose per actuation of 160 and 4.5 mcg, respectively. Patient is begun on DMOG at a dose of 100 mg/kg once per day. Patient's asthma improves. EXAMPLE HI
A person with asthma exacerbated by treatment with fluticasone and salmeterol. Patient is begun on DMOG at a dose of 30 mg/kg twice per day. Patient's asthma improves.
A person with asthma exacerbated wherein symptoms are not improving despite receiving treatment with albuterol. Patient is begun on DMOG at a dose of 25 mg/kg three times per day. Patient's asthma improves.
A person with asthma exacerbated by treatment with budesonide and formoterol at a dose per actuation of 150.0 and 5.0 mcg, respectively. Patient is begun on malonic acid compound at a dose of 120 mg/kg once per day. Patient's asthma improves.

For another test, the system named is impaired sense of smell. Briefly: Patient case example: impaired sense of smell. Type of test: in vivo, human. To be noted: Example XXIII; after steroidal nasal spray; DMOG nasal spray 1 mg/ml. As to the method:
DMOG is administered via nasal spray in amount 1 mg/ml. Patient sense of smell improves.

A further test has as its system sickle cell disease. Briefly: Patient case example: sickle cell disease crisis. Type of test: in vivo, human. Particulars: Example XX; two units of blood, 80 ppm inhaled ethyl nitrite and 100 mg/kg DMOG. As to the method:
A person with homozygous sickle cell disease presents in crisis. The patient complains of severe abdominal and chest pain and is somewhat disoriented. They receive two units of blood while being administered 80 ppm inhaled ethyl nitrite and 100 mg/kg of DMOG.

The test system of a further test is cystic fibrosis. Briefly: Patient case examples: cystic fibrosis. Type of test: in vivo, human. The protocol:
A person with cystic fibrosis presents with hypoxemia and pulmonary hemorrhage. They are begun on ethyl nitrite 20 parts per million in nitrogen, N-acetylcysteine 50 mg/kg Q 6 hours and ascorbate IV 1 gram Q 6 hours, along with DMOG at a dose of 40 mg/kg three times per day. […] They are discharged on day 7. A person with cystic fibrosis presents with labored breathing and increased sputum production.

The target of test [2] is EGLN3 binding to the β2AR (Homo sapiens, UniProt P07550).
The test system of test [3] is disorders of EXAMPLES I-XXIV. To be noted: Examples I-XXIV repeated; peptide 10-100 mg orally once-, twice- or three times-daily.

For `COC(=O)CNC(=O)C(=O)OC` [DMOG, dimethyloxalylglycine], the Blood pressure is listed as 160/90 with hypertension (Example X, propranolol, DMOG 30 mg/kg twice per day) and 160/90 in the test with hypertension (Example XIII, metoprolol, DMOG 30 mg/kg twice per day). Besides, the Hypertension response result in the test on hypertension (Example XI, person after nitropaste, DMOG 30 mg/kg twice per day) was “improves”. For the same molecule, the “Patient's strength, six minute walk test” value in the test with muscle wasting (Example IX, on alprenolol and isosorbide dinitrate, intravenous DMOG formulation 20.0 mg/mL) is “improves”; with muscle wasting (Example VIII, on carvedilol 12.5 BID and isosorbide dinitrate 10 mg, intravenous DMOG formulation 25.0 mg/m), “improves”. Also, the “Patient outcome, spirometry” value in test [1] (Example XV, after albuterol, DMOG 50 mg/kg three times per day) was “improves”. For the same molecule, the “Need for supplemental oxygen” value in test [1] (Example XVI, on supplemental oxygen, salbutamol and prednisone, DMOG 20 mg/kg three times per day) was “no longer requires supplemental oxygen”. In addition, the Ejection fraction with heart failure (Example V, on carvedilol, nitroglycerin patch 2 inches twice a day + DMOG 100 mg/kg once per day) amounted to 40%; in the test on heart failure (Example VI, on carvedilol 50 mg BID, nitroglycerin patch 2 inches twice a day + DMOG 25 mg/kg three times per day) it was 42%; in the test with heart failure (Example VII, on carvedilol 25 mg divided BID, intravenous nitroglycerin 20 μg per minute + DMOG 50 mg/kg three times per day) it was 42%. Also, the “Response to nitroglycerin after tolerance” value in the test on unstable angina (Example XII, intravenous DMOG formulation 15.0 mg/mL) is reported as “responds to nitroglycerin”. Further, the “Patient outcome, unstable angina” value in the test on unstable angina (Example XIV, intravenous DMOG formulation 10.0 mg/ml) is on record as “improves”. Besides, the “Symptoms of pulmonary edema” value was “improve” in the test on pulmonary edema (Example XXI, IV nitroglycerin 0.1 mg per kilogram per minute + intravenous DMOG formulation 10.0 mg/ml) and “improve” in the test on pulmonary edema (Example XXII, intravenous nitroglycerin 25 μg per minute + DMOG 25 mg/kg three times per day). In addition, the “Arteriolar PO2” value in the test on pulmonary edema (Example XXI, from 70, IV nitroglycerin 0.1 mg per kilogram per minute + intravenous DMOG formulation 10.0 mg/ml) came out at 85 mm Hg; in the test with pulmonary edema (Example XXII, from 60, intravenous nitroglycerin 25 μg per minute + DMOG 25 mg/kg three times per day), 85 mm Hg. The “Patient's asthma” value was “improves” in the test on asthma (Example I, person not improving on 250 ug beclomethasone + albuterol inhaler, DMOG 20 mg/kg three times per day); “improves” with asthma (Example II, person on budesonide/formoterol 160/4.5 mcg, DMOG 100 mg/kg once per day); “improves” in the test with asthma (Example III, person on fluticasone and salmeterol, DMOG 30 mg/kg twice per day); “improves” in the test with asthma (Example IV, person not improving on albuterol, DMOG 25 mg/kg three times per day). Also, the Sense of smell entry in the test with impaired sense of smell is “improves”. Moreover, in the test on sickle cell disease, the “Symptoms of sickle cell crisis” value was “All symptoms resolve”. Besides, in the test with cystic fibrosis (Example XIX, after HNO 10 ppm, DMOG 20 mg/kg three times per day, over two days), the Sputum production entry is recorded as “decreases in sputum production”. Also, the “Pulmonary hemorrhage and state of health” value in the test with cystic fibrosis (Example XVIII, ethyl nitrite 20 ppm, N-acetylcysteine 50 mg/kg Q 6 hours, ascorbate IV 1 gram Q 6 hours + DMOG 40 mg/kg three times per day, over three days) is “the hemorrhage stops and the patient reverts to normal state of health”.
Regarding `N[C@@H](CCC(=O)N[C@@H](CSN=O)C(=O)NCC(=O)O)C(=O)O` [S-nitrosoglutathione], the Dyspnea and angina result with heart failure (Example XVII, short of breath despite nitroglycerin, S-nitrosoglutathione 0.1 μg/kg/min) was “improvement of dyspnea and relief of angina”.
Consider EAISFLLSLIDRLVLY, for which the “Binding of EGLN3 to the β2AR” value in [2] was “inhibits binding”. The “Patient outcome in each EXAMPLE” value in [3] is on record as “exhibits improvement”. Moreover, in the test with β2AR, the “Receptor expression in cells” value is reported as “increases receptor expression”.
On to `CC(C)(C)NCC(O)c1ccc(O)c(CO)c1` (stereo not drawn) [albuterol], for which, in test [1] (Example XV, albuterol before DMOG), the “Patient outcome, COPD” value was “no improvement”.
As for `COc1ccccc1OCCNCC(O)COc1cccc2[nH]c3ccccc3c12` (stereo not drawn) [carvedilol], the Ejection fraction response result in the test on heart failure (Example V, carvedilol before DMOG) was “without ejection fraction improving”; in the test with heart failure (Example VI, carvedilol 50 mg BID before DMOG) it was “without ejection fraction improving”; with heart failure (Example VII, carvedilol 25 mg divided BID before DMOG), “without ejection fraction improving”.
As for `CC(C)NCC(O)COc1cccc2ccccc12` (stereo not drawn) [propranolol], the Hypertension response entry in the test on hypertension (Example X, propranolol before DMOG, blood pressure 180/95) was “without improvement”.
On to `COCCc1ccc(OCC(O)CNC(C)C)cc1` (stereo not drawn) [metoprolol], for which, in the test with hypertension (Example XIII, metoprolol before DMOG, blood pressure 180/95), the Hypertension response result is “without improvement”.
In the case of `O=C(O)CC(=O)O` [malonic acid compound, malonic acid], the “Patient's asthma” value in the test on asthma (Example XXIV, on budesonide/formoterol 150.0/5.0 mcg, malonic acid compound 120 mg/kg once per day) is on record as “improves”.
With `N=O` [HNO], the Symptomatic status entry in the test with cystic fibrosis (Example XIX, HNO 10 ppm in nitrogen) is “improvements in their symptomatic status”.
